The results in this text go back to ChEMBL document CHEMBL1131518, “Methionine analogues as inhibitors of methionyl-tRNA synthetase” (1998).

Usually inhibition stands for how much of the control response was suppressed. A higher inhibition goes with strong suppression. The term MIC denotes the smallest concentration in the dilution series that meets the test's criterion for growth inhibition.

Converted amounts (≈) assume the structure as drawn.

Experiment [1] has as its target Methionine--tRNA ligase (Escherichia coli K-12) (UniProt P00959). Put plainly: Ability to inhibit Escherichia coli methionyl-tRNA synthetase was determined at a concentration of 270 uM.
Experiment [2] deals with Bacillus subtilis. In words: Antimicrobial activity against Bacillus subtilis ATCC 6633 was determined. The experiment is classed as functional.
In experiment [3] the test system is Staphylococcus aureus. Put plainly: Antimicrobial activity against Staphylococcus aureus 1538p was determined. The experiment is classed as functional.
In experiment [4] the test system is Pseudomonas aeruginosa. In words: Antimicrobial activity against Pseudomonas aeruginosa 1912E was determined. In kind it is functional.
The test system of experiment [5] is Escherichia coli. Put plainly: Antimicrobial activity against Escherichia coli JM109 was determined. In kind it is functional.
Experiment [6] concerns Citrobacter freundii. Put plainly: Antimicrobial activity against Citrobacter freundii 8090 was determined. In kind it is functional.
The subject of experiment [7] is Salmonella typhimurium. Put plainly: Antimicrobial activity against Salmonella Typhimurium 14028 was determined. In kind it is functional, Salmonella enterica subsp. enterica serovar Typhimurium. As to conditions: Salmonella enterica.
Experiment [8] concerns Proteus vulgaris. Put plainly: Antimicrobial activity against Proteus vulgaris 6059 was determined. In kind it is functional.
The test system of experiment [9] is Klebsiella pneumoniae. Put plainly: Antimicrobial activity against Klebsiella pneumoniae 2011E was determined. In kind it is functional.
The test system of experiment [10] is Enterococcus faecalis. In words: Antimicrobial activity against Enterococcus faecalis 29212 was determined. In kind it is functional.
The test system of experiment [11] is Serratia marcescens. Put plainly: Antimicrobial activity against Serratia marcescens 1826E was determined. The experiment is classed as functional.

Chain of Methionine--tRNA ligase (Escherichia coli K-12) (P00959 2-677 limits assumed): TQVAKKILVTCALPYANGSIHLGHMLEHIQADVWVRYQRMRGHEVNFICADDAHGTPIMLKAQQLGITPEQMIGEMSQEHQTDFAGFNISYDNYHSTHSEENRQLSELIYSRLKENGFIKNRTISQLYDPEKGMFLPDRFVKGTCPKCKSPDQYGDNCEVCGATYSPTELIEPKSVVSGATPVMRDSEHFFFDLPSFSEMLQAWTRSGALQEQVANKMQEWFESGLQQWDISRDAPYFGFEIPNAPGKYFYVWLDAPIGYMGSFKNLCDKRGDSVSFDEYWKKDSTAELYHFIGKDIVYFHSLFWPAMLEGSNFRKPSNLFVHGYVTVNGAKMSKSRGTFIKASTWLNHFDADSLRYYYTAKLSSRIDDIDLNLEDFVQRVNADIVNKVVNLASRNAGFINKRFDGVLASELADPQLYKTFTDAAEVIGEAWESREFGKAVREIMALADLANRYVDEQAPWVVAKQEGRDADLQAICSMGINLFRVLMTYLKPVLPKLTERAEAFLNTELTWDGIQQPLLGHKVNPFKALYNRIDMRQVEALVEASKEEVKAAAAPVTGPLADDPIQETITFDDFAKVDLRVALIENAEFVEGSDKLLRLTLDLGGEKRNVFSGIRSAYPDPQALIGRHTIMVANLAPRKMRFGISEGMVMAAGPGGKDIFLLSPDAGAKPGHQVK

The compound `CSCCC#N` had an inhibition in experiment [1] of 7.8%.

Regarding `CSCC[C@H](N)C(=O)Nc1cccc([N+](=O)[O-])c1`, in experiment [1], the inhibition turned out to be 0%.

Take `CSCC[C@H](NC(=O)OC(C)(C)C)C(=O)NOC(=O)OC(C)(C)C`: the inhibition in [1] amounted to 0%.

As to `CSCC[C@H](NC(=O)OC(C)(C)C)C(=O)O`, in [1], the inhibition turned out to be 11.3%.

Take `CSCCCCO`: the inhibition in experiment [1] was found to be 0%.

For `CSCCC(N)C(=O)Nc1ccc2ccccc2c1` (stereo not drawn), in [1], the inhibition was determined as 22.3%.

Consider `CS(=O)(=O)CC[C@H](N)C(=O)NO`, for which the inhibition in [1] turned out to be 0%.

In [1], `COC(=O)[C@@H](N)CCSC` came in with an inhibition of 20.4%.

With `CSCC[C@H](N)C(=O)Nc1ccc([N+](=O)[O-])cc1`, in experiment [1], the inhibition came out at 33.5%.

As to `CCOC(=O)c1c[nH]nc1CCSC`, the inhibition in experiment [1] turned out to be 0%.

In the case of `CSCCc1n[nH]cc1C(=O)O`, the inhibition in experiment [1] was 8.3%.

As to `CSCC[C@H](N)C(=O)NOC(C)(C)C`, the inhibition in experiment [1] worked out at 56.2%.

As to `CSCC[C@H](NC(=O)OC(C)(C)C)C(=O)NO`, the inhibition in experiment [1] stood at 11.4%.

`CSCC[C@H](N)C(N)=O`: the inhibition in experiment [1] worked out at 17.8%.

In the case of `CSCCC(N)C(=O)NO.O=C(O)C(F)(F)F` (stereo not drawn), the MIC in experiment [2], in [3], in experiment [4], in experiment [5], in [6] and in experiment [7] was > 128 µg/mL throughout. For the same compound, the minimal inhibitory concentration (MIC) in experiment [8], in experiment [9], in [10] and in experiment [11] was > 128 µg/mL throughout.

Turning to `CSCCC(N)C(=O)NO` (stereo not drawn), the MIC in experiment [2] was > 128 µg/mL; in experiment [3], > 128 µg/mL; in [4], > 128 µg/mL; in [5], 2 µg/mL (≈ 12.2 µM); in experiment [6] it was 8 µg/mL (≈ 48.7 µM); in experiment [7], > 128 µg/mL. Further, the minimum inhibitory concentration (MIC) was 4 µg/mL (≈ 24.4 µM) in experiment [8], > 128 µg/mL in experiment [9], > 128 µg/mL in experiment [10] and > 128 µg/mL in experiment [11].

On to `CSCCN1C(=O)c2ccccc2S1(=O)=O`, for which the inhibition in experiment [1] amounted to 16.3%.

With `CSCCC=O`, the inhibition in [1] was found to be 4.7%.

Take `CSCC[C@H](N)C(=O)C(C)C`: the inhibition in [1] is 0%.

In the case of `CSCCO`, the inhibition in experiment [1] was found to be 3.2%.

Compound `CSCCc1nn[nH]n1` returned an inhibition in [1] of 16.2%.

`COC(=O)CCSC` displayed an inhibition in experiment [1] of 3.8%.

As for `COC(=O)CC(=O)CCSC`, the inhibition in [1] is 0.4%.

As for `CSCC[C@H](N)C(=O)NO.O=C(O)C(F)(F)F`, the inhibition in experiment [1] was determined as 81.5%. The MIC in [2] is > 128 µg/mL; in [3], > 128 µg/mL; in experiment [4], > 128 µg/mL; in experiment [5] it was 1 µg/mL; in experiment [6], 8 µg/mL; in experiment [7] it was > 128 µg/mL. For the same compound, the MIC in [8] is 2 µg/mL; in experiment [9], > 128 µg/mL; in experiment [10], > 128 µg/mL; in experiment [11], > 128 µg/mL.

The compound `CSCCC(=O)O` registered an inhibition in experiment [1] of 5.9%.

`CSCCc1cc(O)[nH]n1` came in with an inhibition in [1] of 1.8%.

On to `CSCCC(=O)Cl`, for which the inhibition in experiment [1] was 14%.

Turning to `CSCC[C@H](N)C(=O)NCO`, the inhibition in [1] was found to be 23.1%.

In turn, `CSCCCO` gave an inhibition in experiment [1] of 0%.

In [1], `C[S+]([O-])CC[C@H](N)C(=O)NO` (stereo partly drawn) returned an inhibition of 8.5%.
